Laboratory results taken from patent US20230117324A1, “OXAZINE MONOACYLGLYCEROL LIPASE (MAGL) INHIBITORS” (Hoffmann-La Roche Inc., priority 2018, published 2023).

Target: T1, MAGL (Homo sapiens, UniProt Q99685)
T1 sequence (Q99685 1-303): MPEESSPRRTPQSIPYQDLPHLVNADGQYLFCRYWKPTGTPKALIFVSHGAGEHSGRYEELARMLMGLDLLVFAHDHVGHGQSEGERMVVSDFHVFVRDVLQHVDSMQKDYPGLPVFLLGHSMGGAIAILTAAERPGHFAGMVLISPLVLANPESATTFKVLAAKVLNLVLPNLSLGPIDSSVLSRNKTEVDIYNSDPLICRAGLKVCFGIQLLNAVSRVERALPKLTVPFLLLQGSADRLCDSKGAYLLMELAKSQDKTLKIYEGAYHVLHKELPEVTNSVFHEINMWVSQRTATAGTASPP
Assay: MAGL inhibition, 2-AG assay (hydrolysis of 2-arachidonoylglycerol, arachidonic acid by mass spectrometry)
Format: biochemical
Conditions: 2-AG assay (footnote [b])
Outline: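 Human MAGL […] was preincubated 15 min at RT with compound ([…], 3-fold steps) in 50 mM Tris, 1 mM EDTA, 0.01% Tween. 2-AG (8 μM) was then added for 30 min at RT. Arachidonic acid was quantified by RapidFire SPE–triple quadrupole MS in negative ESI as its ratio to a d8-arachidonic acid standard.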

SMILES | IC50 [nM]
O=C1CO[C@H]2CCN(C(=O)N3CC(c4cc(F)c(OC(F)(F)F)c(F)c4)C3)C[C@H]2N1 [Example 204, (4aR,8aS)-6-(3-(3,5-Difluoro-4-(trifluoromethoxy)phenyl)azetidine-1-carbonyl)hexahydro-2H-pyrido[4,3-b][1,4]oxazin-3(4H)-one] | 10
O=C1CO[C@H]2CCN(C(=O)N3CC(c4ccc(OC(F)(F)F)cc4Cl)C3)C[C@H]2N1 [Example 205, (4aR,8aS)-6-(3-(2-Chloro-4-(trifluoromethoxy)phenyl)azetidine-1-carbonyl)hexahydro-2H-pyrido[4,3-b][1,4]oxazin-3(4H)-one] | 18
O=C1CO[C@H]2CCN(C(=O)N3CC(c4ccc(C56CC(C5)C6)cc4)C3)C[C@H]2N1 [Example 206, (4aR,8aS)-6-(3-(4-(Bicyclo[1.1.1]pentan-1-yl)phenyl)azetidine-1-carbonyl)hexahydro-2H-pyrido[4,3-b][1,4]oxazin-3(4H)-one] | 5
O=C1CO[C@H]2CCN(C(=O)N3CCC(c4c[nH]c5ccc(F)cc45)C3)C[C@H]2N1 (stereo partly drawn) [Example 208, (4aR,8aS)-6-(3-(5-Fluoro-1H-indol-3-yl)pyrrolidine-1-carbonyl)hexahydro-2H-pyrido[4,3-b][1,4]oxazin-3(4H)-one] | 48
O=C1CO[C@H]2CCN(C(=O)N3CC(c4ccc(OC(F)(F)F)c(Cl)c4)C3)C[C@H]2N1 [Example 211, (4aR,8aS)-6-(3-(3-Chloro-4-(trifluoromethoxy)phenyl)azetidine-1-carbonyl)hexahydro-2H-pyrido[4,3-b][1,4]oxazin-3(4H)-one] | 11
O=C1CO[C@H]2CCN(C(=O)N3CC(c4ccc(C5(CO)CC5)cc4)C3)C[C@H]2N1 [Example 214, (4aR,8aS)-6-(3-(4-(1-(Hydroxymethyl)cyclopropyl)phenyl)azetidine-1-carbonyl)hexahydro-2H-pyrido[4,3-b][1,4]oxazin-3(4H)-one] | 62
O=C1CO[C@H]2CCN(C(=O)N3CC(c4ccc(N5CCC(F)C5)cc4)C3)C[C@H]2N1 (stereo partly drawn) [Example 216, (4aR,8aS)-6-(3-(4-(3-Fluoropyrrolidin-1-yl)phenyl)azetidine-1-carbonyl)hexahydro-2H-pyrido[4,3-b][1,4]oxazin-3(4H)-one] | 23
CC1CCN1c1ccc(C2CN(C(=O)N3CC[C@@H]4OCC(=O)N[C@@H]4C3)C2)cc1 (stereo partly drawn) [Example 217, (4aR,8aS)-6-(3-(4-(2-Methylazetidin-1-yl)phenyl)azetidine-1-carbonyl)hexahydro-2H-pyrido[4,3-b][1,4]oxazin-3(4H)-one] | 6
O=C1CO[C@H]2CCN(C(=O)N3CCC(C(c4ccccc4)c4cccnn4)CC3)C[C@H]2N1 (stereo partly drawn) [Example 218, (4aR,8aS)-6-[4-[Phenyl(pyridazin-3-yl)methyl]piperidine-1-carbonyl]-4,4a,5,7,8,8a-hexahydropyrido[4,3-b][1,4]oxazin-3-one] | 54
O=C1CO[C@H]2CCN(C(=O)N3CCC(c4ccc(OC(F)(F)F)cc4)C3)C[C@H]2N1 (stereo partly drawn) [Example 219, (4aR,8aS)-6-[3-[4-(Trifluoromethoxy)phenyl]pyrrolidine-1-carbonyl]-4,4a,5,7,8,8a-hexahydropyrido[4,3-b][1,4]oxazin-3-one] | 276
O=C1CO[C@H]2CCN(C(=O)N3CC(c4ccc(O)c(Cl)c4)C3)C[C@H]2N1 [Example 223, (4aR,8aS)-6-(3-(3-Chloro-4-hydroxyphenyl)azetidine-1-carbonyl)hexahydro-2H-pyrido[4,3-b][1,4]oxazin-3(4H)-one] | 188
CC1CN(c2ccc(C3CN(C(=O)N4CC[C@@H]5OCC(=O)N[C@@H]5C4)C3)cc2Cl)C1 [Example 224, (4aR,8aS)-6-(3-(3-Chloro-4-(3-methylazetidin-1-yl)phenyl)azetidine-1-carbonyl)hexahydro-2H-pyrido[4,3-b][1,4]oxazin-3(4H)-one] | 6
O=C1CO[C@H]2CCN(C(=O)N3CC(c4ccc(N5CC6CC(C6)C5)cc4)C3)C[C@H]2N1 [Example 230, (4aR,8aS)-6-[3-[4-(3-Azabicyclo[3.1.1]heptan-3-yl)phenyl]azetidine-1-carbonyl]-4,4a,5,7,8,8a-hexahydropyrido[4,3-b][1,4]oxazin-3-one] | 0.2
CC1C(c2ccc(OC(F)(F)F)cc2)CN1C(=O)N1CC[C@@H]2OCC(=O)N[C@@H]2C1 (stereo partly drawn) [Example 231, (4aR,8aS)-6-(2-Methyl-3-(4-(Trifluoromethoxy)phenyl)azetidine-1-carbonyl)hexahydro-2H-pyrido[4,3-b][1,4]oxazin-3(4H)-one] | 114
O=C1CO[C@H]2CCN(C(=O)N3CCC(c4cc(Cl)cc(OCC(F)(F)F)c4)C3)C[C@H]2N1 (stereo partly drawn) [Example 233, (4aR,8aS)-6-(3-(3-Chloro-5-(2,2,2-trifluoroethoxy)phenyl)pyrrolidine-1-carbonyl)hexahydro-2H-pyrido[4,3-b][1,4]oxazin-3(4H)-one] | 61

The remaining compounds from weak to strong by IC50, led by results:

IC50 [nM] | SMILES
550 | Cn1ncc2c(C3CN(C(=O)N4CC[C@@H]5OCC(=O)N[C@@H]5C4)C3)cccc21 [Example 215, (4aR,8aS)-6-(3-(1-Methyl-1H-indazol-4-yl)azetidine-1-carbonyl)hexahydro-2H-pyrido[4,3-b][1,4]oxazin-3(4H)-one]
413 | Cn1ncc2ccc(C3CN(C(=O)N4CC[C@@H]5OCC(=O)N[C@@H]5C4)C3)cc21 [Example 220, (4aR,8aS)-6-(3-(1-Methyl-1H-indazol-6-yl)azetidine-1-carbonyl)hexahydro-2H-pyrido[4,3-b][1,4]oxazin-3(4H)-one]
114 | N#Cc1cc(C2CN(C(=O)N3CC[C@@H]4OCC(=O)N[C@@H]4C3)C2)ccc1OC(F)(F)F [Example 213, 5-(1-((4aR,8aS)-3-Oxooctahydro-2H-pyrido[4,3-b][1,4]oxazine-6-carbonyl)azetidin-3-yl)-2-(trifluoromethoxy)benzonitrile]
112 | O=C1CO[C@H]2CCN(C(=O)N3CC(c4ccc(C(F)(F)F)cc4F)C3)C[C@H]2N1 [Example 210, (4aR,8aS)-6-(3-(2-Fluoro-4-(trifluoromethyl)phenyl)azetidine-1-carbonyl)hexahydro-2H-pyrido[4,3-b][1,4]oxazin-3(4H)-one]
100 | O=C1CO[C@H]2CCN(C(=O)N3CC(c4ccc(C5COC5)cc4)C3)C[C@H]2N1 [Example 225, (4aR,8aS)-6-[3-[4-(Oxetan-3-yl)phenyl]azetidine-1-carbonyl]-4,4a,5,7,8,8a-hexahydropyrido[4,3-b][1,4]oxazin-3-one]
19 | O=C1CO[C@H]2CCN(C(=O)N3CC(c4ccc(N5CC(F)(F)C5)c(Cl)c4)C3)C[C@H]2N1 [Example 226, (4aR,8aS)-6-(3-(3-Chloro-4-(3,3-difluoroazetidin-1-yl)phenyl)azetidine-1-carbonyl)hexahydro-2H-pyrido[4,3-b][1,4]oxazin-3(4H)-one]
14 | CC1CN(c2cc(C3CN(C(=O)N4CC[C@@H]5OCC(=O)N[C@@H]5C4)C3)ccc2OC(F)(F)F)C1 [Example 227, (4aR,8aS)-6-(3-(3-(3-Methylazetidin-1-yl)-4-(trifluoromethoxy)phenyl)azetidine-1-carbonyl)hexahydro-2H-pyrido[4,3-b][1,4]oxazin-3(4H)-one]
7 | CC1(C)COc2cc(C3CN(C(=O)N4CC[C@@H]5OCC(=O)N[C@@H]5C4)C3)ccc21 [Example 232, (4aR,8aS)-6-(3-(3,3-Dimethyl-2,3-dihydrobenzofuran-6-yl)azetidine-1-carbonyl)hexahydro-2H-pyrido[4,3-b][1,4]oxazin-3(4H)-one]
6 | O=C1CO[C@H]2CCN(C(=O)N3CC(c4ccc(N5CCCC5C(F)(F)F)cn4)C3)C[C@H]2N1 (stereo partly drawn) [Example 207, (4aR,8aS)-6-(3-(5-(2-(Trifluoromethyl)pyrrolidin-1-yl)pyridin-2-yl)azetidine-1-carbonyl)hexahydro-2H-pyrido[4,3-b][1,4]oxazin-3(4H)-one]
3 | O=C1CO[C@H]2CCN(C(=O)N3CC(c4ccc(N5CC(OCC6CC6)C5)cc4)C3)C[C@H]2N1 [Example 212, (4aR,8aS)-6-[3-[4-[3-(Cyclopropylmethoxy)azetidin-1-yl]phenyl]azetidine-1-carbonyl]-4,4a,5,7,8,8a-hexahydropyrido[4,3-b][1,4]oxazin-3-one]
2 | COC(=O)C(C)(C)c1ccc(C2CN(C(=O)N3CC[C@@H]4OCC(=O)N[C@@H]4C3)C2)cc1 [Example 234, Methyl 2-methyl-2-(4-(1-((4aR,8aS)-3-Oxooctahydro-2H-pyrido[4,3-b][1,4]oxazine-6-carbonyl)azetidin-3-yl)phenyl)propanoate]
0.8 | Cc1cc(C2CN(C(=O)N3CC[C@@H]4OCC(=O)N[C@@H]4C3)C2)ccc1OC(F)(F)F [Example 203, (4aR,8aS)-6-(3-(3-Methyl-4-(trifluoromethoxy)phenyl)azetidine-1-carbonyl)hexahydro-2H-pyrido[4,3-b][1,4]oxazin-3(4H)-one]
0.8 | O=C1CO[C@H]2CCN(C(=O)N3CCC(c4cn(Cc5ccccc5)c5ccc(Cl)cc45)C3)C[C@H]2N1 (stereo partly drawn) [Example 209, (4aR,8aS)-6-(3-(1-Benzyl-5-chloro-1H-indol-3-yl)pyrrolidine-1-carbonyl)hexahydro-2H-pyrido[4,3-b][1,4]oxazin-3(4H)-one]
